Values of other authors as cited in patent publication US20090202633A1, “Extended release formulations of guaifenesin” (priority 2008, published 2009).

How the values were obtained:
[1] = not given; remark: listed apart in the source

## COc1ccccc1OCC(O)CO (centres unmarked) [Guaifenesin, 3-(2-methoxyphenoxy)-1,2-propanediol]
other
  typical plasma half-life: approximately one
[1]
  solubility in water: soluble in water
